In US12458538B2, “Functional wound healing dressings” (Ambient Biosciences, Inc., priority 2018, dated 2025):
“Also recorded” adds a separate entry of the source.

Experiments:
[1] = tested on: C57/BL6J mouse keratinocytes; experiment: Transwell migration assay; format: cell-based
Description: (§1) Two established cell culture models of transwell migration and a scratch wound healing model with freshly isolated C57/BL6J mouse keratinocytes were used. First, the keratinocyte cultures were established by enzymatic separation of keratinocytes from the epidermal layer of mouse skin using a dispase (for isolating epidermal later of skin) and trypsin (for isolating keratinocytes from the epidermis) under gentle agitation. The collected cells were grown in SFM-keratinocyte medium (Life Technologies).
To assess the ability of keratinocytes to migrate under the influence of VEGF, cells were trypsinized, collected by centrifugation and added to the upper chamber of transwell inserts while the No VEGF control or VEGF or VEGF+VEGF inhibitor were added to serum free medium placed in the lower chamber. The cells were allowed to migrate under normal growth conditions. At the end of 24 h, the cells that migrated under the influence of vehicle control or VEGF in lower chamber were counted visually and expressed as percent cell migration.

[2] = tested on: TNFα, COL1A1, DSTN, TGFβ, IL-6 and COL3A1 expression in dermal fibroblasts; experiment: LPS-induced scar-forming gene expression assay of dermal fibroblasts (qPCR); format: cell-based; conditions: LPS 500 ng/ml 3 days; VEGF 10 ng/ml; + control ideal storage, others exposed at 55° C. for 15 days
Description: Dermal fibroblasts were treated with lipopolysaccharide LPS (500 ng/ml) or vehicle PBS (No LPS control) for 3 days in the presence of vitrified VEGF (10 ng/ml) that was tested for stability against exposure to 55° C. from days 1-15.
LPS-treated cells exposed to VEGF (10 ng/ml) that underwent thermo-destabilization in the absence of vitrification served as negative control and the cells treated with VEGF that was subjected to neither vitrification nor destabilization served as positive control.
LPS-induced scar-forming gene expression profiles of dermal fibroblasts namely TNFα, COL1A1, DSTN, TGFβ, IL-6 and COL3A1 were measured by quantitative real-time PCR (qPCR), normalized to the expression of β-actin and expressed relative to the levels measured in No LPS control.

[3] = tested on: C57/BL6J mouse keratinocytes; experiment: Scratch wound healing assay; format: cell-based
Description: as §1
To assess the ability of keratinocytes to migrate and heal wound gaps, scratch wounds of uniform dimensions were created across keratinocyte monolayers and the cultures were left for healing in the presence or absence of VEGF or VEGF inhibitor.

[4] = Activity of vitrified insulin after reconstitution; conditions: reconstitution by contact with water or a body fluid

## vascular endothelial growth factor [VEGF]
[1]; 24 h, serum free medium in lower chamber
  migration of keratinocytes, transwell: stimulates migration of keratinocytes
[1]; n=3
  quantification of cell numbers in the transwell migration assay: dramatic induction of keratinocyte migration
[2]
  LPS-induced scar-forming gene expression: strong suppressive effect on scar forming genes
[3]; n=3
  number of cells that migrated into the scratch wound area: dramatic induction of keratinocyte migration
[3]; scratch wounds on confluent keratinocyte monolayers
  keratinocyte scratch wound healing: promote a dynamic healing in the scratch wound area; also recorded: stimulates migration of keratinocytes

## vitrified insulin: insulin vitrified by the processes described, e.g. electrospun with pullulan and trehalose
[4]
  activity after reconstitution: indistinguishable from fresh insulin
